Laboratory results reported in patent publication US11883422B2, “Glycan therapeutic compositions and related methods thereof” (DSM Nutritional Products, LLC, priority 2015, dated 2024).

Test system: colonic propulsion in morphine-treated mice
Assay: Mouse model of opioid-induced constipation: colonic propulsion (bead expulsion) after morphine
Assay type: in vivo
Protocol: This study was conducted to analyze the effects of glycan therapeutics in a mouse model of opioid-induced constipation. In this model, normal mice are dosed with glycan or control for several days and then administered a dose of morphine sufficient to produce decreased gastrointestinal (GI) transit and colonic propulsion (Coates et al. 2006 Neurogastroenterol Motil 18:464-471). In humans, morphine and related opiate drugs are known to cause constipation. They act on neurons in the myenteric plexus as mu-opioid receptor agonists, leading to decreased GI motility and propulsion. The proportion of the US adult population who take opiates chronically (non-cancer patients), is roughly 4%. In an observational study of patients on opiates for chronic pain, 47% experienced constipation (Tuteja et al. […] Neurogastroenterol Motil 22: 424-430). There is evidence that chronic constipation can predispose individuals to benign GI neoplasms and colorectal cancer. […]
Several drug toxicities affecting GI motility (e.g. causing constipation or diarrhea) in cancer are also related to or associated with other immune imbalances and nutritional imbalances. […] Colonic propulsion was assessed as follows: thirty minutes post morphine dosing, a 3 mm glass bead was inserted at a depth of 2 cm into the distal colon through each mouse's anus. […]

SMILES: C=CCN1CC[C@]23c4c5ccc(O)c4O[C@H]2C(=O)CC[C@@]3(O)[C@H]1C5 [naloxone]
- responders (reduction in expulsion of >25% of maximum expulsion time, 1350 seconds) (1% in drinking water for 11 days (naloxone 30 minutes prior to morphine), morphine 3 mg/kg subcutaneously): 6/8
- effect in this mouse model of colonic propulsion (third analysis, responder versus non-responder animals, cutoff 1800 seconds): reversing the effects of morphine
